Experimental data reported in the NIST ThermoML archive (doi:10.1016/j.fluid.2011.09.010).
± gives the expanded uncertainty stated by the source.

Assay: activity coefficient (dimensionless); of the first substance listed, at infinite dilution; xn = mol fraction of the nth substance listed
Conditions: 101.3 kPa, Liquid, Differential ebulliometry, x1 = 0

## C1CCCCC1 [cyclohexane] + NC1CCCCC1
373.15 K
  activity coefficient: 1.24 ± 0.15
393.15 K
  activity coefficient: 1.18 ± 0.14

## NC1CCCCC1 [cyclohexylamine] + C1CCCCC1
333.15 K
  activity coefficient: 1.77 ± 0.21
348.15 K
  activity coefficient: 1.49 ± 0.18

## NC1CCCCC1 [cyclohexylamine] + CC1CCCCC1
353.15 K
  activity coefficient: 1.87 ± 0.22
373.15 K
  activity coefficient: 1.64 ± 0.2
393.15 K
  activity coefficient: 1.48 ± 0.18

## NC1CCCCC1 [cyclohexylamine] + CCC1CCCCC1
353.15 K
  activity coefficient: 1.52 ± 0.18
373.15 K
  activity coefficient: 1.45 ± 0.17
393.15 K
  activity coefficient: 1.36 ± 0.16

## CCC1CCCCC1 [ethylcyclohexane] + NC1CCCCC1
353.15 K
  activity coefficient: 1.57 ± 0.19
373.15 K
  activity coefficient: 1.45 ± 0.17
393.15 K
  activity coefficient: 1.42 ± 0.17

## CC1CCCCC1 [methylcyclohexane] + NC1CCCCC1
333.15 K
  activity coefficient: 1.19 ± 0.14
353.15 K
  activity coefficient: 1.26 ± 0.15
373.15 K
  activity coefficient: 1.25 ± 0.15
